According to US7183099B2, “Inhibitors of autoinducer transporters” (Princeton University, priority 2001, dated 2007):

Assays:
wild type S. typhimurium = experiment: Growth on AI-2 as sole carbon source; format: cell-based
Description: One possibility is that AI-2 is initially used as a signal, then, at subsequent times, when AI-2 is no longer required for signal transduction, S. typhimurium internalizes it for use as a carbon source. To test this idea, we attempted to grow wild type S. typhimurium on in vitro prepared AI-2 as a sole carbon source. […] Therefore, growth on AI-2 cannot account for its disappearance from the medium. A second possibility is that the removal of AI-2 activity is required for its modification to another signal. For example, the LsrE epimerase, or another enzyme, could convert AI-2 into an internal signal. Finally, AI-2 could be internalized for degradation. In this case, elimination of AI-2 could serve to terminate the signalling process. Signal production coupled to subsequent elimination could allow S. typhimurium the flexibility to transition between several modes of existence. For example, as AI-2 is associated with the presence of many species of bacteria, high levels of AI-2 could be indicative of the transition from outside a host to the intestinal environment, whereas low levels of AI-2 could signal S. typhimurium that it has exited the intestinal tract for the next location in the infection (i.e., the macrophage) where S. typhimurium is not in association with high numbers of commensal bacteria. […]

[1] = tested on: ftsQ1p2p-lacZ reporter (SdiA); experiment: SdiA regulated ftsQ1p2p-lacZ reporter assay; format: cell-based, E. coli; settings: 10% osmotic shock fluids containing AI-2 activity, 2 h
Description: Analysis of the effect of autoinducer on SdiA regulated gene expression. A sequence that includes the ftsQ1p and ftsQ2p promoters (Wang et al., 1991, supra) was amplified from E. coli MG1655 chromosomal DNA using the following primers: • ftsQ1p, 5′-[…]-3′ (SEQ ID NO: 19); • ftsQ2p, 5′-[…]-3′ (SEQ ID NO: 20).
The amplified product contained both the ftsQ promoters and the first 14 codons of the ftsQ gene flanked by BamHI and Bg1II sites. The ftsQ1p2p PCR product was cloned into the BamHI site of vector pMLB1034 (Silhavy et al., Experiments with Gene Fusions, Cold Spring Harbor Press, 1984) to generate a lacZ fusion that contained the promoters, ribosome binding site, and initiation codon of ftsQ. A correctly oriented clone, pMS207, and a clone containing the ftsQ1p2p insert in the opposite orientation, pMS209, were chosen for further analysis. Both inserts were sequenced to ensure that no errors were introduced during the PCR reaction.
For ftsQ regulation in E. coli, the plasmids pMS207 and pMS209 were transformed into E. coli strain MC4100 (Silhavy et al., 1984, supra), and the transformants were grown overnight in LB containing 100 mg/L ampicillin at 30° C. with aeration. For rck regulation, S. typhimurium strains BA1105 (rck::MudJ) and BA1305 (rck::MudJ sdiA) were grown overnight in LB containing 100 mg/L kanamycin at 30° C. with aeration. […]

Lsr ABC transporter [2] = target: T1, Lsr ABC transporter (Salmonella typhimurium, UniProt Q8ZKQ1); experiment: Removal of exogenous AI-2 from S. typhimurium culture fluids; format: cell-based; settings: for input AI-2 activity remaining: wild type lsrR strain
T1 construct: containing a wild type lsr operon; endogenous in cells; host or cells: S. typhimurium 14028 derivatives in a luxS null background (parent SS007, luxS::T-POP; also MET342, ΔlsrR)
Experimental: (§1) Cultures of S. typhimurium luxS null strains containing a wild type lsr operon or containing mutations inactivating lsr genes were grown to mid-exponential phase in LB at 37° C. AI-2 prepared by our in vitro method was added to the cultures, and the cultures were incubated with the AI-2 for an hour. Subsequently, the cells were removed from the culture fluid by centrifugation, and the resulting cell-free culture fluids were assayed for AI-2 activity using the V. harveyi AI-2 bioassay. This assay involves measuring the increase in light production of a V. harveyi quorum sensing reporter strain that induces bioluminescence exclusively in response to the presence of AI-2. In the present experiment, the bioassay allowed us to determine the level of AI-2 activity remaining in the culture fluids of the different S. typhimurium mutants. Since all the S. typhimurium strains we used in this experiment contained null mutations in luxS, the only AI-2 that could be present in the cell-free culture fluids came from that that we added exogenously.
(§2) Relative levels of AI-2 in cell-free culture fluids of S. typhimurium strains of interest were measured using a V. harveyi bioluminescence assay, as described previously (Bassler et al., 1993; Bassler et al., 1997). Cell-free culture fluids were prepared as described (Surette and Bassler, 1998; Surette et al., 1999). These preparations were assayed for AI-2 activity at 10% (vol/vol), using V. harveyi reporter strain BB170 (luxN::Tn5), as described (Bassler et al., 1993). AI-2 activity is reported as fold induction over background of bioluminescence. To examine the role of Lsr in the uptake of AI-2, cultures of S. typhimurium were grown overnight, diluted 1:100 into fresh LB, and grown for a total of 4 hours. During the final hour of growth, the cells were incubated with 70 μM in vitro prepared AI-2 for specified times (Schauder et al., 2001). Subsequently, the cultures were chilled on ice and cell-free culture fluids were prepared. The AI-2 remaining in these preparations was measured in the V. harveyi bioluminescence assay. Assays were performed in duplicate.

Lsr ABC transporter [3] = experiment: as above; format: cell-based; settings: 1 h
Experimental: as §1, §2

[4] = wild type lsr strain (luxS null), 1 h incubation

CC(=O)C(=O)C(O)CO (stereo not drawn) [AI-2, 4,5-dihydroxy-2,3-pentanedione]
growth on in vitro prepared AI-2 as a sole carbon source (wild type S. typhimurium): could not grow on AI-2
change in β-galactosidase level of MC4100/pMS207 [1]: this level of activity did not change under any of the conditions tested here
activity gone from the culture fluids (Lsr ABC transporter [2]; inactivation of lsrR, 1 h incubation): over 99%
AI-2 activity remaining (induction of the bioassay strain) (Lsr ABC transporter [2]; [4]): 80 fold
disappearance of AI-2 activity from the culture fluid (Lsr ABC transporter [2]; [4]): 92%
input AI-2 activity remaining (Lsr ABC transporter [2]; 2 min): 97%
input AI-2 activity remaining (Lsr ABC transporter [2]; 15 min): 85%
input AI-2 activity remaining (Lsr ABC transporter [2]; 30 min): 82%
input AI-2 activity remaining (Lsr ABC transporter [2]; 45 min): 75%
input AI-2 activity remaining (Lsr ABC transporter [2]; 60 min): 6%
elimination of AI-2 from the culture fluids (Lsr ABC transporter [3]; MudJ insertion mutants in lsrA, lsrC and lsrB): unable to eliminate AI-2 from the culture fluids
level of AI-2 versus input (Lsr ABC transporter [3]; ΔlsrR, lsrC::MudJ double mutant): the level of AI-2 did not decrease compared to the input activity
